Read-outs that look alike come from different tables or passages of the source.
Legend:
[1] = test system: rats with hyperactivity induced by a mixture of dexamphetamine-chlordiazepoxide; test: Y-maze test, DEX-CDP hyperactivity, levetiracetam and valproate alone or combined (Example 6); type: in vivo, rat; settings: median (Q1-Q3)
Source text: The purpose of the present experiment was to study the effects of levetiracetam administered alone or in combination with valproate on the hyperactivity induced in rats by a mixture of dexamphetamine-chlordiazepoxide (DEX-CDP) evaluated in a Y-shaped maze apparatus, a test recognized as a model for mania. Increased motor activity is a frequent symptom of manic disorders and, therefore, is often used as a model of mania in laboratory animals. Lithium, a medicine approved by the FDA in the prophylaxis and the treatment of bipolar disorders and mania, and valproate, indicated for the treatment of manic episodes associated with bipolar disorders, have been shown active in this model of mania (Vale A. L. & Ratcliffe F., Psychopharmacol. (1987), 91, 352-355; Cao B. J. & Peng N. A., Eur. J. Pharmacol. (1993), 237, 177-181).
Hyperactivity was induced in male Sprague Dawley rats weighing 210-290 g (n 13 or 15 per group) by a mixture of dexamphetamine-chlordiazepoxide as described by Vale A. L. (Vale A. L. & Ratcliffe F., Psychopharmacol. (1987), 91, 352-355). […]
Each rat was placed in the center of the Y-maze (with each arm 40 cm long and 15 cm wide with 35 cm walls) constructed in gray plexiglas. The number of visits into the arms was recorded over a 5 minutes period as an index of activity.
The results were expressed as median with the first and third quartile. […]

[2] = test system: amygdala-kindled rats; test: Protection against secondarily generalized motor seizures in amygdala-kindled rats; type: in vivo, rat; settings: for ED50: Rattus norvegicus, ip, read-out: ED50, protection against secondarily generalized motor seizures
Source text: The purpose of this study was to evaluate the pharmacodynamic interaction between valproate levetiracetam in preventing secondarily generalized motor seizures in amygdala-kindled rats, a model that has repeatedly been proposed to reflect complex partial seizures with secondarily generalization in man ([…]. & al., Exp. Neurol. […] McNamara J. O., Ann. of Neurol. (1984), 16 (suppl.), […]-[…]). In this model, focal electrical kindling of amygdala in rats induces the development of electrical seizure activity ([…] amygdala and behavioral seizures, generally evolving through facial clonus, head nodding, forelimb clonus, rearing and fully kindled seizures with rearing and falling accompanied by generalized clonic seizures (Racine R. J., Electroencephalogr. Clin. Neurophysiol. (1972), 32, 281-294). […] Neurol. […] Two days later, drugs were tested. The behavioral effect of stimulation was graded according to the score of Racine (Racine R. J., Electroencephalogr. Clin. Neurophysiol. (1972), 32, 281-294).

Row | SMILES | Number of arms visited ([1]; levetiracetam 17 mg/kg i.p. + DEX-CDP mixture) | ED50 [2] | Calculated proportion of animals protected ([2]; levetiracetam 17 mg/kg alone) | Calculated proportion of animals protected ([2]; levetiracetam 54 mg/kg alone) | Calculated proportion of animals protected ([2]; levetiracetam 108 mg/kg alone) | Number of arms visited ([1]; valproate 150 mg/kg i.p. + DEX-CDP mixture) | ED50 ([2]; compound alone, i.p., LOGIT-LOG DOSE regression)
1 | CC[C@@H](C(N)=O)N1CCCC1=O [Levetiracetam, (S)-(−)α-ethyl-2-oxo-1-pyrrolidineacetamide] | 46 (41-49) | 307 mg/kg | 7% | 18% | 28.5% |  | 
2 | CCCC(CCC)C(=O)[O-].[Na+] [Valproate, sodium valproate] |  |  |  |  |  | 41 (18-49) | 197 mg/kg

— US6903130B1, “Pyrrolidineacetamide derivative alone or in combination for treatment of cns disorders” (UCB S.A., priority 1999, dated 2005)
